Laboratory results: patent publication US7951815B2, “Substituted 1,4,8-triazaspiro [4,5]decan-2-one compounds” (Gruenenthal GmbH, priority 2004, dated 2011)
Structures can show the parent of a compound that is named as a salt.

target: T1, 5-HT transporter (Rattus norvegicus, UniProt P31652); experiment: Inhibition of 5-HT uptake in rat brain synaptosomes; format: biochemical; settings: characteristic data of the 5-HT transporter, rat synaptosomes
T1 construct: synaptosomes of rat brain areas are freshly isolated; from tissue; host or cells: rat brain synaptosomes (P2 fraction) from marrow and pons
T1 sequence (P31652 whole entry): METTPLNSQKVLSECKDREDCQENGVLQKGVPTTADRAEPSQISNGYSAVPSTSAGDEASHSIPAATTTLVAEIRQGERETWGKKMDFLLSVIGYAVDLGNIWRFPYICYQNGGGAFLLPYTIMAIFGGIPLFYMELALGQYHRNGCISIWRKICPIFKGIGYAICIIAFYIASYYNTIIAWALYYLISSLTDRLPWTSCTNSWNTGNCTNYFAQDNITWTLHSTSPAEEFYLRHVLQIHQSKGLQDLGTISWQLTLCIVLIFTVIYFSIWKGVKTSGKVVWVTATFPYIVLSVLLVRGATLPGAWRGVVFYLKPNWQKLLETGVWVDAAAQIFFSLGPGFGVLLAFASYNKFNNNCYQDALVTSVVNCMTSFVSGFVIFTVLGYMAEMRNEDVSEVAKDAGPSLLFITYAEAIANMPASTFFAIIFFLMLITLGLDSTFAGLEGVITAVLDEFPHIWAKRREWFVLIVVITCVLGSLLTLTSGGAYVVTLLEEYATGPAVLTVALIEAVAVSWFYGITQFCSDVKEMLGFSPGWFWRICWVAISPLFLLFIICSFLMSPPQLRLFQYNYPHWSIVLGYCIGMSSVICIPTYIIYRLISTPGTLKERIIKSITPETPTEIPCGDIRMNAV

Structure (SMILES)	Km [µM]
NCCc1c[nH]c2ccc(O)cc12 [Example 5-HT, reference compound]	0.084 ± 0.011

same assay, conditions: read-out: Uptake 5-HT, % inhibition; Table II; rat, 1 μM

Structure (SMILES)	inhibition at 1 µM [%]
CCC(CC)C(=O)N1CCC2(CC1)NC(CCSC)C(=O)N2Cc1ccccc1 (centres unmarked) [Example 33, 1-benzyl-8-(2-ethylbutyryl)-3-(2-methylsulfanylethyl)-1,4,8-triazaspiro[4,5]decan-2-one hydrochloride]	49

same assay, conditions: read-out: Uptake 5-HT, % inhibition; Table III; rat, 1 μM

inhibition at 1 µM [%]	Structure (SMILES)
46	COc1ccc(C(=O)N2CCC3(CC2)NC(CCSC)C(=O)N3C)c(OC)c1 (centres unmarked) [Example 67, 8-(2,4-Dimethoxybenzoyl)-1-methyl-3-(2-methylsulfanylethyl)-1,4,8-triazaspiro[4,5]decan-2-one]
75	CCC(CC)C(=O)N1CCC2(CC1)NCC(=O)N2Cc1ccccc1C#N [Example 68, 2-[8-(2-Ethylbutyryl)-2-oxo-1,4,8-triazaspiro[4,5]dec-1-ylmethyl]benzonitrile]
47	CCOC(=O)CC(=O)N1CCC2(CC1)NCC(=O)N2CCOc1ccccc1 [Example 74, Ethyl 3-oxo-3-[2-oxo-1-(2-phenoxyethyl)-1,4,8-triazaspiro[4,5]dec-8-yl]propionate]
43	C#CCN1C(=O)C(Cc2ccccc2)NC12CCN(C(=O)COC)CC2 (centres unmarked) [Example 81, 3-Benzyl-8-(2-methoxyacetyl)-1-prop-2-ynyl-1,4,8-triazaspiro[4,5]decan-2-one]
64	O=C1NC2(CCN(C(=O)c3ccccc3Cl)CC2)NC1Cc1ccccc1 (centres unmarked) [Example 84, 3-Benzyl-8-(2-chlorobenzoyl)-1,4,8-triazaspiro[4,5]decan-2-one]
56	CC(C)=CCN1C(=O)C(C(C)C)NC12CCN(C(=O)c1ccncc1)CC2 (centres unmarked) [Example 87, 3-Isopropyl-1-(3-methylbut-2-enyl)-8-(pyridin-4-carbonyl)-1,4,8-triazaspiro[4,5]decan-2-one]
33	CC(C)(C)CC(=O)N1CCC2(CC1)NC(=O)C(Cc1ccccc1)N2 (centres unmarked) [Example 110, 3-Benzyl-8-(3,3-dimethylbutyryl)-1,4,8-triazaspiro[4,5]decan-2-one]
53	COCCOCC(=O)N1CCC2(CC1)NC(CCSC)C(=O)N2Cc1ccccc1C#N (centres unmarked) [Example 114, 2-[8-[2-(2-Methoxyethoxy)acetyl]-3-(2-methylsulfanylethyl)-2-oxo-1,4,8-triazaspiro[4,5]dec-1-ylmethyl]benzonitrile]
32	Cc1cc(C(=O)N2CCC3(CC2)NC(=O)C(C(C)C)N3)ccc1Br (centres unmarked) [Example 130, 8-(4-Bromo-3-methylbenzoyl)-3-isopropyl-1,4,8-triazaspiro[4,5]decan-2-one]
42	CSc1ncccc1C(=O)N1CCC2(CC1)NC(Cc1ccccc1)C(=O)N2C (centres unmarked) [Example 143, 3-Benzyl-1-methyl-8-(2-methylsulfanylpyridin-3-carbonyl)-1,4,8-triazaspiro[4,5]decan-2-one]
51	CCCCN1C(=O)C(CCSC)NC12CCN(C(=O)c1ccc(OC)cc1)CC2 (centres unmarked) [Example 144, 1-Butyl-8-(4-methoxybenzoyl)-3-(2-methylsulfanylethyl)-1,4,8-triazaspiro[4,5]decan-2-one]
45	CSCCC1NC2(CCN(C(=O)c3ccco3)CC2)N(Cc2ccc(F)cc2)C1=O (centres unmarked) [Example 147, 1-(4-Fluorobenzyl)-8-(furan-2-carbonyl)-3-(2-methylsulfanylethyl)-1,4,8-triazaspiro[4,5]decan-2-one]
56	C#CCN1C(=O)C(CCSC)NC12CCN(C(=O)C1CCC1)CC2 (centres unmarked) [Example 152, 8-Cyclobutanecarbonyl-3-(2-methylsulfanylethyl)-1-prop-2-ynyl-1,4,8-triazaspiro[4,5]decan-2-one]
63	CCCCN1C(=O)C(Cc2ccccc2)NC12CCN(C(=O)c1ccco1)CC2 (centres unmarked) [Example 153, 3-Benzyl-1-butyl-8-(furan-2-carbonyl)-1,4,8-triazaspiro[4,5]decan-2-one]
74	CCCCN1C(=O)C(Cc2ccccc2)NC12CCN(C(=O)c1cc(C(F)(F)F)ccc1C(F)(F)F)CC2 (centres unmarked) [Example 155, 3-Benzyl-8-(2,5-bis-trifluoromethylbenzoyl)-1-butyl-1,4,8-triazaspiro[4,5]decan-2-one]
64	CC(C)C1NC2(CCN(C(=O)c3cccnc3Cl)CC2)N(Cc2ccccc2)C1=O (centres unmarked) [Example 157, 1-Benzyl-8-(2-chloropyridin-3-carbonyl)-3-isopropyl-1,4,8-triazaspiro[4,5]decan-2-one]
40	CCCCN1C(=O)C(CCSC)NC12CCN(C(=O)COCc1ccccc1)CC2 (centres unmarked) [Example 159, 8-(2-Benzyloxyacetyl)-1-butyl-3-(2-methylsulfanylethyl)-1,4,8-triazaspiro[4,5]decan-2-one]
39	CCCCN1C(=O)C(CCSC)NC12CCN(C(=O)CCCOc1ccccc1)CC2 (centres unmarked) [Example 161, 1-Butyl-3-(2-methylsulfanylethyl)-8-(4-phenoxybutyryl)-1,4,8-triazaspiro[4,5]decan-2-one]
71	CSCCC1NC2(CCN(C(=O)c3cccnc3Oc3ccccc3)CC2)N(Cc2ccccc2F)C1=O (centres unmarked) [Example 163, 1-(2-Fluorobenzyl)-3-(2-methylsulfanylethyl)-8-(2-phenoxypyridin-3-carbonyl)-1,4,8-triazaspiro[4,5]decan-2-one]
46	CSCCC1NC2(CCN(C(=O)c3ccccn3)CC2)N(Cc2ccccc2F)C1=O (centres unmarked) [Example 170, 1-(2-Fluorobenzyl)-3-(2-methylsulfanylethyl)-8-(pyridin-2-carbonyl)-1,4,8-triazaspiro[4,5]decan-2-one]
62	CSCCC1NC2(CCN(C(=O)c3cccnc3Oc3ccccc3)CC2)N(Cc2ccccc2)C1=O (centres unmarked) [Example 171, 1-Benzyl-3-(2-methylsulfanylethyl)-8-(2-phenoxypyridin-3-carbonyl)-1,4,8-triazaspiro[4,5]decan-2-one]
49	Cc1nc(C(F)(F)F)ccc1C(=O)N1CCC2(CC1)NC(C(C)C)C(=O)N2Cc1ccccc1 (centres unmarked) [Example 178, 1-Benzyl-3-isopropyl-8-(2-methyl-6-trifluoromethylpyridin-3-carbonyl)-1,4,8-triazaspiro[4,5]decan-2-one]
32	C#CCN1C(=O)C(Cc2ccccc2)NC12CCN(C(=O)c1ccco1)CC2 (centres unmarked) [Example 186, 3-Benzyl-8-(furan-2-carbonyl)-1-prop-2-ynyl-1,4,8-triazaspiro[4,5]decan-2-one]
47	CSCCC1NC2(CCN(C(=O)c3cccc4ccccc34)CC2)N(C)C1=O (centres unmarked) [Example 187, 1-Methyl-3-(2-methylsulfanylethyl)-8-(naphthalin-1-carbonyl)-1,4,8-triazaspiro[4,5]decan-2-one]
43	CCCCN1C(=O)C(Cc2ccccc2)NC12CCN(C(=O)COC)CC2 (centres unmarked) [Example 190, 3-Benzyl-1-butyl-8-(2-methoxyacetyl)-1,4,8-triazaspiro[4,5]decan-2-one]
30	CN1C(=O)C(Cc2ccccc2)NC12CCN(C(=O)c1ccc(C(F)(F)F)c(F)c1)CC2 (centres unmarked) [Example 191, 3-Benzyl-8-(3-fluoro-4-trifluoromethylbenzoyl)-1-methyl-1,4,8-triazaspiro[4,5]decan-2-one]
53	CC(C)C1NC2(CCN(C(=O)c3cccc(SC(F)F)c3)CC2)N(Cc2ccccc2)C1=O (centres unmarked) [Example 192, 1-Benzyl-8-(3-difluoromethylsulfanylbenzoyl)-3-isopropyl-1,4,8-triazaspiro[4,5]decan-2-one]
